Reference: patent publication US9540337B2, “Gamma-glutamyl transpeptidase inhibitors and methods of use” (The Board of Regents of the University of Oklahoma, priority 2012, dated 2017)
Several values for one entry are separate records, joined by “and”; a condition that tells them apart may be missing. Equal values may be shown once. Read-outs that look alike come from different tables or passages of the source.

What was measured:
hGGT = biological target: T1, hGGT (Homo sapiens, UniProt P19440); assay: L-Glutamate Release Assay (Hydrolysis of GSH); type: biochemical; details: for Ki: read-out: GSH Kii
T1 construct: lacking the transmembrane domain; made in house; host or cells: Pichia pastoris
T1 sequence (P19440 381-569 limits assumed): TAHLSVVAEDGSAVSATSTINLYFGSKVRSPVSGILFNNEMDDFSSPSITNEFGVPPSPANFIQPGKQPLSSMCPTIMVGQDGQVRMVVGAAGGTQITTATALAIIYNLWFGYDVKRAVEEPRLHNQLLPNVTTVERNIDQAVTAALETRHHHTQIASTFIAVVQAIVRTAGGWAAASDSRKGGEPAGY
T1 sequence (P19440 27-380 limits assumed): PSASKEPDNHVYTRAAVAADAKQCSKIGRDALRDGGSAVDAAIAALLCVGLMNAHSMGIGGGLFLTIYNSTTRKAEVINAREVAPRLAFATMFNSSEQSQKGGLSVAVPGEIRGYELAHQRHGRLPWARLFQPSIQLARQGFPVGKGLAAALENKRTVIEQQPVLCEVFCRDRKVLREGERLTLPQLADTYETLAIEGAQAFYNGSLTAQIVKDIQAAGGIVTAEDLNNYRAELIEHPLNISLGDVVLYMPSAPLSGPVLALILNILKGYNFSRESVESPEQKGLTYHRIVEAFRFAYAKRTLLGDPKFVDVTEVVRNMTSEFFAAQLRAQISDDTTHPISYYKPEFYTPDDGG
Protocol: L-Glutamate Release Assay (Hydrolysis of GSH): This assay measures the production of glutamate from the hydrolysis of GSH by GGT enzyme and has been described in detail previously. The concentration of the substrate, GSH, was varied from 5 μM to 20 μM. The concentration of the inhibitors, OU749 and its analogs, were varied from 15.6 μM to 250 μM. The reaction was initiated with the addition of 10 mU hGGT. […] All compounds were also evaluated as inhibitors of glutamate dehydrogenase, the enzyme in the second half of the L-glutamate release assay. None of the compounds in this study inhibited glutamate dehydrogenase.

Human GGT1 (hGGT) [1] = biological target: T2, Human GGT1 (hGGT) (Homo sapiens, UniProt P19440); assay: L-GpNA Transpeptidation Assay with GlyGly as acceptor; type: biochemical; set-up: lacking the transmembrane domain; made in house; host or cells: Pichia pastoris
T2 sequence (P19440 381-569 limits assumed): as the sequence (P19440 381-569 limits assumed) above
T2 sequence (P19440 27-380 limits assumed): as the sequence (P19440 27-380 limits assumed) above
Protocol: Transpeptidation Reaction: The same assay buffer was used for both the hydrolysis reaction and the transpeptidation reaction. The transpeptidation reaction included 40 mM glycylglycine (glygly, Sigma, St. Louis, Mo.) as the acceptor. […] The concentration of L-GpNA was 3 mM for experiments in which the concentration of glygly was varied. To initiate the transpeptidation reaction, 4 mU GGT were added.
1. […] 3 and 4. […] 5 (25).
L-GpNA Transpeptidation Assay: The assay has been described previously. […] The concentration of L-GpNA was 3 mM for experiments in which the concentration of GlyGly was varied. To initiate the transpeptidation reaction, 4 mU GGT were added.

Human GGT1 (hGGT) [2] = biological target: T2, Human GGT1 (hGGT); assay: D-GpNA Hydrolysis Assay (release of pNA, 405 nm, pH 7.4)
Protocol: (§1) Enzyme Isolation: Human GGT1 (P19440), lacking the transmembrane domain, was expressed in Pichia pastoris and isolated as previously described (14). […] One unit of GGT activity was defined as the amount of enzyme that released 1 μmol of paranitroaniline/min at 37° C. at pH 7.4 in the transpeptidation reaction.
The reaction was initiated with the addition of 19 mU GGT. The reaction was incubated at 37° C. and monitored continuously at 405 nm by a Bio-Rad model 680 microplate reader with Microplate Manager 5.2 software (Bio-Rad, Hercules, Calif.).
Data Analysis: Samples in each experiment were run in triplicate. Each inhibitor was evaluated in two or more independent experiments. Double reciprocal plots were generated to assess data quality and determine the correct rate equation for data fitting. Data were fitted using the proper rate equation and the Marquardt-Levenberg algorithm supplied with the Enzfitter program (BIOSOFT, Cambridge, UK). Kinetic parameters with standard errors were estimated using a simple weighting method.
Data adhering to Michaelis-Menten Kinetics were fitted to eq. 1. Data for initial rate patterns with D-, L-GpNA varied at different fixed levels of glygly were fitted to eq. […] Data for competitive and uncompetitive inhibition were fitted to eqs. 3 and 4. Data for the dependence of Vmax and Vmax/KD-GpNA on the concentration of activator were fitted using eq. 5 (25).
In eqs 1-6, Vmax are the initial and maximum rates, respectively, Ka and Kb are Michaelis constants for substrates A and B, respectively, and Kis and Kii are slope and intercept inhibition constants. In eq. 5, a is the value of Vmax or Vmax/KD-GpNA at zero activator/inhibitor, KID is the activation or inhibition constant, and KIN is a constant that causes the parameter to go to a constant value at infinite concentrations of X, the activator/inhibitor. The product a(KID/KIN) is the value of Vmax or Vmax/KD-GpNA at infinite activator/inhibitor (25). Data for noncompetitive inhibition were fitted to eq. 6. Data for the dependence of Vmax and Vmax/KD-GpNA on the concentration of activator were fitted using […].
as §1, with “hGGT” for “Human GGT1”, “described.” for “described (14).”, “reaction with L-GpNA.” for “reaction.”
D-GpNA Hydrolysis Assay: The assay was carried out as previously described. […] The reaction was initiated with the addition of 19 mU GGT as determined by the L-GpNA transpeptidation assay. The reaction was incubated at 37° C. and monitored continuously at 405 nm.

[3] = GlyGly varied, 3 mM L-GpNA, Table 2, read-out: Transpeptidation GlyGly Kis
[4] = L-GpNA varied, 40 mM GlyGly, Table 2, read-out: Transpeptidation L-GpNA Kii
[5] = Table 4, read-out: L-GpNA with GlyGly Kii

| Ki (hGGT; GSH hydrolysis, Table 4) [µM] | Ki (Human GGT1 (hGGT) [1]; [3]) [µM] | Ki (Human GGT1 (hGGT) [1]; [4]) [µM] | Ki (Human GGT1 (hGGT) [2]) [µM] | Ki (hGGT; GSH hydrolysis, Table 6) [µM] | SMILES | also measured |
| --- | --- | --- | --- | --- | --- | --- |
| – | 13.4 ± 0.8 | 32.5 ± 0.9 | – | > 250 | COc1ccc(Cc2nnc(NS(=O)(=O)c3ccc(Cl)cc3)s2)cc1 [Compound 10] | Ki (Human GGT1 (hGGT) [2]; read-out: Hydrolysis D-GpNA Kii, D-GpNA substrate, Table 2): 5530 ± 1460 µM |
| 105 ± 14 | – | – | – | – | COc1ccc(Cc2nnc(NS(=O)(=O)c3ccc(N)cc3)s2)cc1 [Compound 21] | fold more potent than OU749 in inhibiting GSH hydrolysis (hGGT; relative to OU749): 3.6 fold; Ki (Human GGT1 (hGGT) [1]; Table 4, read-out: GlyGly with L-GpNA Kis): 10 ± 1 µM; Ki (Human GGT1 (hGGT) [1]; [5]): 36 ± 1 µM; Ki (Human GGT1 (hGGT) [2]; read-out: D-GpNA Kii, Table 4): 31 ± 1 µM |

More lines, now with the values behind:

| SMILES | Ki (hGGT; GSH hydrolysis, Table 4) [µM] | Ki (Human GGT1 (hGGT) [1]; [3]) [µM] | Ki (Human GGT1 (hGGT) [1]; [4]) [µM] | Ki (Human GGT1 (hGGT) [2]) [µM] | Ki (hGGT; GSH hydrolysis, Table 6) [µM] | also measured |
| --- | --- | --- | --- | --- | --- | --- |
| COc1ccc(Cc2nnc(NS(=O)(=O)c3ccccc3)s2)cc1 [Compound 1] | 376 ± 50 | 54.1 ± 3.9 | – | – | – | – |
| COc1ccc(Cc2nnc(NS(=O)(=O)c3ccc(C)cc3)s2)cc1 [Compound 2] | 506 ± 75 | 10 ± 0.4 | 22.7 ± 0.5 | 73.3 ± 4 | – | fold less potent than OU749 in inhibiting GSH hydrolysis (hGGT; relative to OU749): 1.3 fold |
| COc1ccc(Cc2nnc(NS(=O)(=O)c3ccc(Cl)cc3Cl)s2)cc1 [Compound 4] | – | 3.7 ± 1 | 15.7 ± 0.7 | 75.6 ± 7.2 | 950 ± 242 | – |
| COc1ccc(Cc2nnc(NS(=O)(=O)c3ccc(C(C)(C)C)cc3)s2)cc1 [Compound 7] | > 250 | 143 ± 8.7 | 150 ± 13 | 341 ± 6.4 | – | fold less effective than OU749 in inhibiting hydrolysis of D-GpNA (Human GGT1 (hGGT) [2]; relative to OU749): 2-5 fold |
| COc1ccc(Cc2nnc(NS(=O)(=O)c3ccc(Cl)c(Cl)c3)s2)cc1 [Compound 8] | – | 10.8 ± 0.8 | 18.2 ± 0.7 | 3160 ± 90 | > 250 | – |
| COc1ccc(Cc2nnc(NS(=O)(=O)c3ccc(OC)cc3)s2)cc1 [Compound 9] | > 250 | 133 ± 10.3 | – | 3800 ± 720 | – | Ki (Human GGT1 (hGGT) [1]; [5]): 149 ± 23 µM |
| O=[N+]([O-])c1ccc(S(=O)(=O)Nc2nnc(Cc3ccc(Cl)c(Cl)c3)s2)cc1 [Compound 20] | – | – | – | – | – | Ki (hGGT; Compound 20, inhibition of GSH hydrolysis, Table 7): 859 ± 83 µM; Ki (Human GGT1 (hGGT) [1]; Table 3, read-out: Transpeptidation GlyGly Kis): 10 µM and 10.3 µM; Ki (Human GGT1 (hGGT) [2]; read-out: D-GpNA Kii, Compound 20, Table 7): 78 ± 2 µM; Ki (Human GGT1 (hGGT) [2]; read-out: Kii with D-GpNA, competitive inhibition of the hydrolysis reaction, Compound 20, competitive vs D-GpNA): 78 µM and 78.2 µM |
